In ChEMBL document CHEMBL1201862, “PubChem BioAssay data set” (2004):
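Each compound was tested at five concentrations against cells in 96-well plates for 48 hours. GI50: concentration for 50% inhibition of growth.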 Activity calls are given as the source filed them. No stated cut-off is given here; in the data, active = GI50 up to about 1.1 µM and inactive = higher.

What was measured:
Experiment in all cases: NCI anticancer screen, dose series, 48 h
[1] = system: IGROV-1
[2] = system: HT-29
[3] = system: T47D
[4] = system: UO-31
[5] = system: SN12C
[6] = system: HCT-15
[7] = system: MDA-MB-231
[8] = system: ACHN
[9] = system: HCC 2998
[10] = system: Hs-578T
[11] = system: U-251
[12] = system: OVCAR-8
[13] = system: HCT-116
[14] = system: MCF7
[15] = system: A549
[16] = system: SF-539
[17] = system: COLO 205
[18] = system: Malme-3M
[19] = system: CAKI-1

Measured: GI50

COC(=O)CCc1ccc2c(c1)CC1(Cc3ccccc3C1)C2
inactive: [1] > 100 µM | [2] > 100 µM | [3] > 100 µM | [4] > 100 µM | [5] > 100 µM | [7] > 100 µM | [8] > 100 µM | [9] > 100 µM | [10] > 100 µM | [11] > 100 µM | [12] > 100 µM | [13] 95.1 µM | [14] > 100 µM | [15] 98.4 µM | [16] > 100 µM | [17] > 100 µM | [18] > 100 µM
> 100 µM: [6]

CSc1ccc(/C=C/c2ccnc3ccccc23)cc1
11.5 µM: [6]
inactive: [1] 16.4 µM | [2] 14 µM | [3] 5.58 µM | [4] 11.8 µM | [5] 15.5 µM | [7] 17 µM | [8] 14.1 µM | [9] 13.9 µM | [10] 20.9 µM | [11] 12.8 µM | [12] 15.5 µM | [13] 10.5 µM | [14] 13.6 µM | [15] 12.5 µM | [16] 17.6 µM | [17] 11.3 µM | [18] 17.6 µM

O=C(Cc1ccccc1)NN1C(=O)/C(=C\c2cccc([N+](=O)[O-])c2)S/C1=N\c1ccccc1
> 100 µM: [6]
inactive: [1] > 100 µM | [2] > 100 µM | [3] > 100 µM | [4] > 100 µM | [5] > 100 µM | [7] > 100 µM | [8] > 100 µM | [9] > 100 µM | [10] > 100 µM | [11] > 100 µM | [12] > 100 µM | [13] > 100 µM | [14] 34.7 µM | [15] > 100 µM | [16] > 100 µM | [17] > 100 µM

CCOC(=O)NC(C(C(=O)OCC)C(=O)OCC)(C(F)(F)F)C(F)(F)F
inactive: [1] > 100 µM | [2] > 100 µM | [19] > 100 µM | [3] > 100 µM | [4] > 100 µM | [5] > 100 µM | [7] > 100 µM | [8] > 100 µM | [10] > 100 µM | [11] > 100 µM | [12] > 100 µM | [13] > 100 µM | [14] > 100 µM | [15] > 100 µM | [16] > 100 µM | [17] > 100 µM | [18] > 100 µM
> 100 µM: [6]

OC12CC/C(=N/OCc3ccccc3)CC1c1ccccc12 (stereo unspecified)
inactive: [1] > 100 µM | [2] > 100 µM | [19] > 100 µM | [4] > 100 µM | [5] > 100 µM | [8] > 100 µM | [9] > 100 µM | [11] > 100 µM | [12] > 100 µM | [13] > 100 µM | [15] > 100 µM | [16] > 100 µM | [17] > 100 µM | [18] > 100 µM
> 100 µM: [6]

COc1ccc2c(c1)CC[C@@H]1C2CC[C@]2(C)C(=C=CP(=O)(O)O)CCC12 (stereo partly specified)
> 100 µM: [6]
inactive: [1] > 100 µM | [2] > 100 µM | [19] > 100 µM | [3] > 100 µM | [5] > 100 µM | [8] > 100 µM | [9] > 100 µM | [10] > 100 µM | [11] > 100 µM | [12] > 100 µM | [13] > 100 µM | [14] 79.6 µM | [15] > 100 µM | [16] > 100 µM | [17] > 100 µM | [18] > 100 µM

O=c1[nH]ccc2c1ccn2C1CC(O)C(CO)O1 (stereo unspecified)
inactive: [1] > 100 µM | [2] > 100 µM | [19] > 100 µM | [4] > 100 µM | [5] > 100 µM | [8] > 100 µM | [9] > 100 µM | [11] > 100 µM | [12] > 100 µM | [13] > 100 µM | [15] > 100 µM | [16] > 100 µM | [17] > 100 µM | [18] > 100 µM
> 100 µM: [6]

CC#CC1C(OC(=O)c2ccccc2)CCCC1(CI)N=[N+]=[N-] (stereo unspecified)
inactive: [1] > 100 µM | [2] 40.6 µM | [19] > 100 µM | [4] 56.5 µM | [5] > 100 µM | [8] > 100 µM | [9] 90.2 µM | [11] 59.7 µM | [12] 59.7 µM | [13] 32.8 µM | [15] 58.6 µM | [16] > 100 µM | [17] > 100 µM | [18] > 100 µM
45.2 µM: [6]

Cn1nc2ccccc2cc1=O
inactive: [1] > 100 µM | [2] > 100 µM | [19] > 100 µM | [4] > 100 µM | [5] > 100 µM | [8] > 100 µM | [9] > 100 µM | [11] > 100 µM | [12] > 100 µM | [13] > 100 µM | [15] > 100 µM | [16] > 100 µM | [17] > 100 µM | [18] > 100 µM
> 100 µM: [6]

CCOC(=O)c1cc(/C=C/C(C)=C/C(=O)OC)oc1-c1ccccc1
inactive: [1] 66.7 µM | [2] > 100 µM | [19] 55.8 µM | [4] 35.4 µM | [5] 73.8 µM | [8] 71.8 µM | [9] > 100 µM | [11] 50 µM | [12] 92.7 µM | [13] 32.1 µM | [15] 49.8 µM | [16] 43.9 µM | [17] > 100 µM | [18] > 100 µM
58.9 µM: [6]

CC1OC(n2cc(F)c(=O)[nH]c2=O)CCC1=O (stereo unspecified)
inactive: [1] > 100 µM | [2] 91 µM | [19] > 100 µM | [4] 71.8 µM | [5] > 100 µM | [8] > 100 µM | [9] 5.98 µM | [11] > 100 µM | [12] > 100 µM | [13] 44.9 µM | [15] 46.7 µM | [16] 10.4 µM | [17] 79.4 µM | [18] > 100 µM
95.3 µM: [6]

O=C1OC2(CCCCC2)C(Oc2ccc(Cl)cc2)=C1F
inactive: [1] 54.8 µM | [2] 26.8 µM | [19] 77.4 µM | [3] 37.2 µM | [4] 49.5 µM | [5] 45.2 µM | [7] 77.3 µM | [8] 45.4 µM | [9] 22.3 µM | [10] 50 µM | [11] 61.8 µM | [12] 51.9 µM | [13] 35.7 µM | [14] 37.8 µM | [15] 42.1 µM | [16] > 100 µM | [17] 26.5 µM | [18] 15.6 µM
